Test results from patent US4364958A, “1-Substituted-3-cycloalkyl-sulfonyl-pyrrolidine-2,5-dione derivatives and fungicidal compositions thereof” (Chinoin Gyogyszer es Vegyeszeti Termekek Gyara Rt., priority 1979, dated 1982).
Where two headings read alike, the source gives them in different places.

Tests used:
[1] = system: Saccharomyces cerevisiae OKI.1282; experiment: minimal inhibitory concentration in Sabouraud medium; type: cell-based; conditions: for MIC: Saccharomyces cerevisiae
Source text: Saccharomyces cerevisiae OKI.1282
(§1) As a medium Saboroud medium was employed.

Candida albicans CBS.562 = experiment: as above; type: cell-based; conditions: for MIC: Candida albicans
Source text: Candida albicans CBS.562 "2"
as §1

[2] = system: Candida tropicalis CBS.433; experiment: as above; type: cell-based; conditions: for MIC: Candida tropicalis
Source text: Candida tropicalis CBS.433 "3"
as §1

[3] = system: Aspergillus niger CBS.12648; experiment: as above; type: cell-based; conditions: for MIC: Aspergillus niger
Source text: Aspergillus niger CBS.12648
as §1

[4] = system: Aspergillus fumigatus CBS.11326; experiment: as above; type: cell-based; conditions: for MIC: Aspergillus fumigatus
Source text: Aspergillus fumigatus CBS.11326
as §1

[5] = system: Aspergillus flavus CBS.24765; experiment: as above; type: cell-based; conditions: for MIC: Aspergillus flavus
Source text: Aspergillus flavus CBS.24765
as §1

[6] = system: Penicillium digitatum CBS.31948; experiment: as above; type: cell-based; conditions: for MIC: Penicillium digitatum
Source text: Penicillium digitatum CBS.31948
as §1

[7] = system: Penicillium digitatum CCM.F-382; experiment: as above; type: cell-based; conditions: for MIC: Penicillium digitatum
Source text: Penicillium digitatum CCM.F-382
as §1

[8] = system: Penicillium chrysogenium CBS.19646; experiment: as above; type: cell-based; conditions: for MIC: Penicillium
Source text: Penicillium chrysogenium CBS.19646
as §1

[9] = system: Penicillium chrysogenium CCM.F-362; experiment: as above; type: cell-based; conditions: for MIC: Penicillium
Source text: Penicillium chrysogenium CCM.F-362
as §1

[10] = system: Microsporum gypseum ver. vinosum CBS.10064; experiment: as above; type: cell-based; conditions: Nannizzia gypsea
Source text: Microsporum gypseum ver. vinosum CBS.10064
as §1

[11] = system: Sporotrichum schenkii CBS.34035; experiment: as above; type: cell-based; conditions: for MIC: Sporotrichum
Source text: Sporotrichum schenkii CBS.34035
as §1

[12] = system: Trichophyton rubrum CBS.30338; experiment: as above; type: cell-based; conditions: for MIC: Trichophyton rubrum
Source text: Trichophyton rubrum CBS.30338
as §1

[13] = system: Trichophyton mentagrophytes CBS.50148; experiment: as above; type: cell-based; conditions: for MIC: Trichophyton mentagrophytes
Source text: Trichophyton mentagrophytes CBS.50148
as §1

[14] = system: Epidermophyton floccosum OKI/IV.; experiment: as above; type: cell-based; conditions: for MIC: Epidermophyton floccosum
Source text: Epidermophyton floccosum OKI/IV.
as §1

[15] = system: Fusarium graminocorum DSM.11802; experiment: as above; type: cell-based
Source text: Fusarium graminocorum DSM.11802
as §1

[16] = system: Fusarium oxysporum DSM.10975; experiment: as above; type: cell-based
Source text: Fusarium oxysporum DSM.10975
as §1

[17] = system: Fusarium monoliforme DSM.11778; experiment: as above; type: cell-based; conditions: for MIC: Fusarium
Source text: Fusarium monoliforme DSM.11778
as §1

[18] = system: Fusarium culmorum DSM.11425; experiment: as above; type: cell-based
Source text: Fusarium culmorum DSM.11425
as §1

[19] = system: Aspergillus niger CCM.F-330; experiment: as above; type: cell-based; conditions: for MIC: Aspergillus niger
Source text: Aspergillus niger CCM.F-330
as §1

Botrytis cinerea = experiment: activity against phytopathogenic fungi; type: cell-based
Ascochyta pisi = experiment: activity against phytopathogenic fungi; type: cell-based
Cercospora beticola = experiment: activity against phytopathogenic fungi; type: cell-based
Taphrina deformans = experiment: activity against phytopathogenic fungi; type: cell-based
Phytophtora infestans = type: cell-based
Sclerotinia sclerotiorum = experiment: activity against phytopathogenic fungi; type: cell-based
Verticillium albo-atrum = experiment: activity against phytopathogenic fungi; type: cell-based
Verticillium dahlise = experiment: activity against phytopathogenic fungi; type: cell-based
Venturia = experiment: activity against phytopathogenic fungi; type: cell-based
Candida krusei 79/K47 = experiment: minimal inhibitory concentration in Sabouraud medium; conditions: Pichia kudriavzevii, read-out: minimal inhibitory concentration
Procedure: (§2) Sabouraud medium was inoculated with 10^5 /ml. germ number and the propagation of the fungi was examined after 24, 48, 72, 144 and 288 hours incubation time and the minimal inhibitory concentrations were determined.

[20] = system: Cryptococcus neoform. 78/K16; experiment: as above; conditions: read-out: minimal inhibitory concentration
Procedure: as §2

[21] = CBS.50148, 72 h, 72 hours, read-out: minimal inhibitory concentration
[22] = CBS.50148, 144 h, 144 hours, read-out: minimal inhibitory concentration
[23] = CBS.50148, read-out: Minimal inhibitory concentration inhibiting the growth
[24] = 144 h, read-out: minimal inhibitory concentration
[25] = 288 h, read-out: minimal inhibitory concentration

O=C1CC(S(=O)(=O)C2CCCCC2)C(=O)N1c1ccccc1 (stereo not drawn) [1-Phenyl-3-cyclohexyl-sulfonyl-pyrrolidine-2,5-dione]
1 µg/mL: MIC ([14]; read-out: Minimal inhibitory concentration inhibiting the growth)
150 µg/mL: MIC ([2]; CBS.433, 24 h, 24 hours) | MIC ([2]; CBS.433, 48 h, 48 hours) | MIC ([3]; CBS.12648, 144 h, 144 hours) | MIC ([3]; CBS.12648, 288 h, 288 hours) | MIC ([4]; CBS.11326, 144 h, 144 hours) | MIC ([4]; CBS.11326, 288 h, 288 hours) | minimal inhibitory concentration ([5]; 144 hours) | minimal inhibitory concentration ([8]; 288 hours) | minimal inhibitory concentration ([9]; 144 hours) | MIC ([17]; DSM.11778, 144 h, 144 hours) | MIC ([17]; DSM.11778, 288 h, 288 hours) | minimal inhibitory concentration ([19]; 144 hours) | minimal inhibitory concentration ([19]; 288 hours) | MIC ([19]; CCM.F330, 72 h, 72 hours)
active: activity against Botrytis cinerea (Botrytis cinerea) | activity against Ascochyta pisi (Ascochyta pisi) | activity against Cercospora beticola (Cercospora beticola) | activity against Taphrina deformans (Taphrina deformans) | activity against Phytophtora infestans (Phytophtora infestans) | activity against Sclerotinia sclerotiorum (Sclerotinia sclerotiorum) | activity against Verticillium albo-atrum (Verticillium albo-atrum) | activity against Verticillium dahlise (Verticillium dahlise) | activity against Venturia (Venturia)
5 µg/mL: MIC [13, 21] | MIC [14, 24] | MIC [14, 25]
200 µg/mL: minimal inhibitory concentration ([4]; 288 hours) | minimal inhibitory concentration ([5]; 288 hours) | MIC ([5]; CBS.24765, 144 h, 144 hours) | MIC ([9]; CCM.F362, 144 h, 144 hours) | MIC ([9]; CCM.F362, 288 h, 288 hours) | minimal inhibitory concentration ([17]; 288 hours) | MIC ([19]; CCM.F330, 144 h, 144 hours)
10 µg/mL: MIC ([6]; CBS.31948, 72 h, 72 hours) | MIC ([10]; 72 h) | MIC ([12]; CBS.30338, 144 h, 144 hours) | MIC ([12]; CBS.30338, 288 h, 288 hours) | MIC [13, 22] | minimal inhibitory concentration ([14]; 288 hours) | MIC (Candida krusei 79/K47; 79/K47, 24 h) | MIC (Candida krusei 79/K47; 79/K47, 48 h)
250 µg/mL: MIC ([5]; CBS.24765, 288 h, 288 hours) | MIC ([19]; CCM.F330, 288 h, 288 hours)
100 µg/mL: MIC (Candida albicans CBS.562; CBS.562, 48 h, 48 hours) | MIC ([5]; CBS.24765, 72 h, 72 hours) | minimal inhibitory concentration ([11]; 288 hours) | MIC ([15]; 144 hours) | MIC ([15]; 288 hours) | MIC ([17]; DSM.11778, 72 h, 72 hours) | MIC ([18]; 288 hours)
50 µg/mL: MIC ([1]; OKI.1282, 24 h, 24 hours) | MIC ([1]; OKI.1282, 48 h, 48 hours) | minimal inhibitory concentration (Candida albicans CBS.562; 24 hours) | minimal inhibitory concentration (Candida albicans CBS.562; 48 hours) | MIC ([4]; CBS.11326, 72 h, 72 hours) | minimal inhibitory concentration ([6]; 288 hours) | minimal inhibitory concentration ([7]; 288 hours) | MIC ([7]; CCM.F382, 144 h, 144 hours) | MIC ([8]; CBS.19646, 72 h, 72 hours) | MIC ([11]; CBS.34035, 288 h, 288 hours) | MIC ([15]; 72 hours) | MIC ([16]; 72 hours) | MIC ([18]; 72 hours) | MIC ([18]; 144 hours)
2.5 µg/mL: MIC ([12]; CBS.30338, 72 h, 72 hours) | minimal inhibitory concentration ([13]; 72 hours) | MIC [13, 23] | minimal inhibitory concentration ([14]; 144 hours)
75 µg/mL: minimal inhibitory concentration ([1]; 24 hours) | minimal inhibitory concentration ([1]; 48 hours) | MIC (Candida albicans CBS.562; CBS.562, 24 h, 24 hours) | minimal inhibitory concentration ([2]; 24 hours) | minimal inhibitory concentration ([2]; 48 hours) | MIC ([3]; CBS.12648, 72 h, 72 hours) | minimal inhibitory concentration ([5]; 72 hours) | MIC ([7]; CCM.F382, 288 h, 288 hours) | MIC ([8]; CBS.19646, 144 h, 144 hours) | MIC ([8]; CBS.19646, 288 h, 288 hours) | MIC ([9]; CCM.F362, 72 h, 72 hours) | MIC ([16]; 144 hours) | MIC ([16]; 288 hours) | minimal inhibitory concentration ([17]; 72 hours) | minimal inhibitory concentration ([19]; 72 hours)
25 µg/mL: MIC ([6]; CBS.31948, 144 h, 144 hours) | MIC ([6]; CBS.31948, 288 h, 288 hours) | MIC ([20]; 24 h) | MIC ([20]; 48 h)

Cc1ccc(N2C(=O)CC(S(=O)(=O)C3CCCCC3)C2=O)cc1 (stereo not drawn)
100 µg/mL: MIC ([2]; CBS.433, 24 h, 24 hours) | MIC ([17]; DSM.11778, 72 h, 72 hours) | MIC ([19]; CCM.F330, 72 h, 72 hours)
150 µg/mL: MIC ([2]; CBS.433, 48 h, 48 hours) | MIC ([4]; CBS.11326, 144 h, 144 hours) | MIC ([4]; CBS.11326, 288 h, 288 hours) | MIC ([5]; CBS.24765, 72 h, 72 hours) | MIC ([9]; CCM.F362, 144 h, 144 hours) | MIC ([9]; CCM.F362, 288 h, 288 hours) | MIC ([16]; 72 hours) | MIC ([17]; DSM.11778, 144 h, 144 hours) | MIC ([17]; DSM.11778, 288 h, 288 hours) | MIC ([18]; 144 hours) | MIC ([18]; 288 hours) | MIC ([19]; CCM.F330, 144 h, 144 hours)
10 µg/mL: MIC ([6]; CBS.31948, 72 h, 72 hours) | MIC ([6]; CBS.31948, 144 h, 144 hours) | MIC ([6]; CBS.31948, 288 h, 288 hours) | MIC ([10]; 72 h) | MIC (Candida krusei 79/K47; 79/K47, 48 h) | MIC ([20]; 48 h)
50 µg/mL: MIC (Candida albicans CBS.562; CBS.562, 48 h, 48 hours) | minimal inhibitory concentration ([3]; 144 hours) | MIC ([4]; CBS.11326, 72 h, 72 hours) | MIC ([8]; CBS.19646, 72 h, 72 hours) | MIC ([15]; 72 hours) | MIC ([15]; 144 hours) | MIC ([15]; 288 hours)
active: activity against Botrytis cinerea (Botrytis cinerea) | activity against Ascochyta pisi (Ascochyta pisi) | activity against Cercospora beticola (Cercospora beticola) | activity against Taphrina deformans (Taphrina deformans) | activity against Phytophtora infestans (Phytophtora infestans) | activity against Sclerotinia sclerotiorum (Sclerotinia sclerotiorum) | activity against Verticillium albo-atrum (Verticillium albo-atrum) | activity against Verticillium dahlise (Verticillium dahlise) | activity against Venturia (Venturia)
1 µg/mL: MIC ([20]; 24 h)
5 µg/mL: MIC ([11]; CBS.34035, 72 h, 72 hours) | MIC ([12]; CBS.30338, 144 h, 144 hours) | MIC ([12]; CBS.30338, 288 h, 288 hours) | MIC ([13]; CBS.50148, 288 h, 288 hours, read-out: minimal inhibitory concentration) | MIC ([14]; 72 h, read-out: minimal inhibitory concentration) | MIC [14, 24] | MIC [14, 25]
250 µg/mL: MIC ([5]; CBS.24765, 144 h, 144 hours) | MIC ([19]; CCM.F330, 288 h, 288 hours)
200 µg/mL: MIC ([16]; 144 hours) | MIC ([16]; 288 hours)
75 µg/mL: MIC ([3]; CBS.12648, 144 h, 144 hours) | MIC ([3]; CBS.12648, 288 h, 288 hours) | MIC ([7]; CCM.F382, 288 h, 288 hours) | MIC ([8]; CBS.19646, 144 h, 144 hours) | MIC ([8]; CBS.19646, 288 h, 288 hours) | MIC ([9]; CCM.F362, 72 h, 72 hours) | MIC ([18]; 72 hours)
25 µg/mL: MIC ([1]; OKI.1282, 48 h, 48 hours) | minimal inhibitory concentration (Candida albicans CBS.562; 48 hours) | MIC ([3]; CBS.12648, 72 h, 72 hours) | MIC ([7]; CCM.F382, 72 h, 72 hours) | MIC ([7]; CCM.F382, 144 h, 144 hours) | MIC ([10]; 144 h) | MIC ([10]; 288 h) | MIC ([11]; CBS.34035, 288 h, 288 hours)
2.5 µg/mL: minimal inhibitory concentration ([12]; 144 hours) | minimal inhibitory concentration ([12]; 288 hours) | MIC [13, 21] | MIC [13, 22] | MIC [13, 23] | minimal inhibitory concentration ([14]; 72 hours) | MIC (Candida krusei 79/K47; 79/K47, 24 h)
